Data published in PubChem BioAssay (NCI).
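Where inhibition never reached the appropriate level, the endpoint shown equals the highest concentration tested. Otherwise, values were interpolated linearly from a five-concentration, 48-hour dose response in 96-well plates. GI50 marks 50% less growth. TGI: total growth inhibition.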

Experiments:
Assay in all cases: NCI-60 cell line screen, 48 h
MDA-MB-231 breast = system: MDA-MB-231 breast
NCI-H226 lung = system: NCI-H226 lung
COLO 205 colon = system: COLO 205 colon
OVCAR-8 ovarian = system: OVCAR-8 ovarian
TK-10 renal = system: TK-10 renal
UO-31 renal = system: UO-31 renal
HCT-116 colon = system: HCT-116 colon
SK-MEL-5 melanoma = system: SK-MEL-5 melanoma
U251 CNS = system: U251 CNS
786-0 renal = system: 786-0 renal
OVCAR-3 ovarian = system: OVCAR-3 ovarian
UACC-257 melanoma = system: UACC-257 melanoma
KM12 colon = system: KM12 colon
ACHN renal = system: ACHN renal
HS 578T breast = system: HS 578T breast
SF-295 CNS = system: SF-295 CNS
SN12C renal = system: SN12C renal
OVCAR-5 ovarian = system: OVCAR-5 ovarian
A498 renal = system: A498 renal
HCT-15 colon = system: HCT-15 colon
K-562 leukemia = system: K-562 leukemia
T-47D breast = system: T-47D breast
SF-268 CNS = system: SF-268 CNS
SNB-19 CNS = system: SNB-19 CNS
MDA-MB-435 = system: MDA-MB-435
SW-620 colon = system: SW-620 colon
SF-539 CNS = system: SF-539 CNS
OVCAR-4 ovarian = system: OVCAR-4 ovarian
NCI/ADR-RES ovarian = system: NCI/ADR-RES ovarian
MOLT-4 leukemia = system: MOLT-4 leukemia
HT29 colon = system: HT29 colon
SK-MEL-28 melanoma = system: SK-MEL-28 melanoma
SK-OV-3 ovarian = system: SK-OV-3 ovarian
SNB-75 CNS = system: SNB-75 CNS
HOP-92 NSCLC = system: HOP-92 NSCLC
MCF7 breast = system: MCF7 breast
HCC-2998 colon = system: HCC-2998 colon
UACC-62 melanoma = system: UACC-62 melanoma
NCI-H460 lung = system: NCI-H460 lung
M14 melanoma = system: M14 melanoma
LOX IMVI melanoma = system: LOX IMVI melanoma
EKVX NSCLC = system: EKVX NSCLC
A549 NSCLC = system: A549 NSCLC
DU-145 prostate = system: DU-145 prostate
BT-549 breast = system: BT-549 breast
IGROV1 ovarian = system: IGROV1 ovarian
SR leukemia = system: SR leukemia
NCI-H522 lung = system: NCI-H522 lung
MALME-3M melanoma = system: MALME-3M melanoma
SK-MEL-2 melanoma = system: SK-MEL-2 melanoma
NCI-H23 lung = system: NCI-H23 lung
HL-60(TB) leukemia = system: HL-60(TB) leukemia

COc1ccc(-c2cs/c(=N\N=C\c3ccc(O)cc3O)n2/N=C/c2ccc(O)cc2O)cc1
GI50 (MDA-MB-231 breast): 2040 nM | TGI (MDA-MB-231 breast): 5510 nM | GI50 (NCI-H226 lung): 2080 nM | TGI (NCI-H226 lung): 4780 nM | GI50 (COLO 205 colon): 2090 nM | TGI (COLO 205 colon): 4190 nM | GI50 (OVCAR-8 ovarian): 2470 nM | TGI (OVCAR-8 ovarian): 6630 nM | GI50 (TK-10 renal): 2460 nM | TGI (TK-10 renal): 5100 nM | GI50 (UO-31 renal): 1500 nM | TGI (UO-31 renal): 3200 nM | GI50 (HCT-116 colon): 1570 nM | TGI (HCT-116 colon): 3040 nM | GI50 (SK-MEL-5 melanoma): 1690 nM | TGI (SK-MEL-5 melanoma): 3070 nM | GI50 (U251 CNS): 1860 nM | TGI (U251 CNS): 3910 nM | GI50 (786-0 renal): 2160 nM | TGI (786-0 renal): 4930 nM | GI50 (OVCAR-3 ovarian): 1750 nM | TGI (OVCAR-3 ovarian): 3670 nM | GI50 (UACC-257 melanoma): 2280 nM | TGI (UACC-257 melanoma): 6190 nM | GI50 (KM12 colon): 1980 nM | TGI (KM12 colon): 4600 nM | GI50 (ACHN renal): 1800 nM | TGI (ACHN renal): 3840 nM | GI50 (HS 578T breast): 2700 nM | TGI (HS 578T breast): 7360 nM | GI50 (SF-295 CNS): 1710 nM | TGI (SF-295 CNS): 3330 nM | GI50 (SN12C renal): 2180 nM | TGI (SN12C renal): 5350 nM | GI50 (OVCAR-5 ovarian): 2370 nM | TGI (OVCAR-5 ovarian): 5180 nM | GI50 (A498 renal): 1750 nM | TGI (A498 renal): 3810 nM | GI50 (HCT-15 colon): 1730 nM | TGI (HCT-15 colon): 5120 nM | GI50 (K-562 leukemia): 2620 nM | TGI (K-562 leukemia): > 100000 nM | GI50 (T-47D breast): 1650 nM | TGI (T-47D breast): 6220 nM | GI50 (SF-268 CNS): 2360 nM | TGI (SF-268 CNS): 6130 nM | GI50 (SNB-19 CNS): 2460 nM | TGI (SNB-19 CNS): 6840 nM | GI50 (MDA-MB-435): 1690 nM | TGI (MDA-MB-435): 3480 nM | GI50 (SW-620 colon): 2330 nM | TGI (SW-620 colon): 4910 nM | GI50 (SF-539 CNS): 1900 nM | TGI (SF-539 CNS): 3750 nM | GI50 (OVCAR-4 ovarian): 2170 nM | TGI (OVCAR-4 ovarian): 7120 nM | GI50 (NCI/ADR-RES ovarian): 2020 nM | TGI (NCI/ADR-RES ovarian): 5350 nM | GI50 (MOLT-4 leukemia): 1790 nM | TGI (MOLT-4 leukemia): 5050 nM | GI50 (HT29 colon): 2410 nM | TGI (HT29 colon): 5260 nM | GI50 (SK-MEL-28 melanoma): 1880 nM | TGI (SK-MEL-28 melanoma): 4150 nM | GI50 (SK-OV-3 ovarian): 2310 nM | TGI (SK-OV-3 ovarian): 5020 nM | GI50 (SNB-75 CNS): 1580 nM | TGI (SNB-75 CNS): 3080 nM | GI50 (HOP-92 NSCLC): 2380 nM | TGI (HOP-92 NSCLC): 6510 nM | GI50 (MCF7 breast): 1900 nM | TGI (MCF7 breast): 5840 nM | GI50 (HCC-2998 colon): 2070 nM | TGI (HCC-2998 colon): 4380 nM | GI50 (UACC-62 melanoma): 1760 nM | TGI (UACC-62 melanoma): 3730 nM | GI50 (NCI-H460 lung): 2010 nM | TGI (NCI-H460 lung): 4430 nM | GI50 (M14 melanoma): 1630 nM | TGI (M14 melanoma): 3210 nM | GI50 (LOX IMVI melanoma): 1760 nM | TGI (LOX IMVI melanoma): 3680 nM | GI50 (EKVX NSCLC): 2320 nM | TGI (EKVX NSCLC): 6730 nM | GI50 (A549 NSCLC): 1890 nM | TGI (A549 NSCLC): 4620 nM | GI50 (DU-145 prostate): 2210 nM | TGI (DU-145 prostate): 5840 nM | GI50 (BT-549 breast): 1540 nM | TGI (BT-549 breast): 3590 nM | GI50 (IGROV1 ovarian): 2670 nM | TGI (IGROV1 ovarian): 6500 nM | GI50 (SR leukemia): 2530 nM | TGI (SR leukemia): > 100000 nM | GI50 (NCI-H522 lung): 1880 nM | TGI (NCI-H522 lung): 4680 nM | GI50 (MALME-3M melanoma): 2200 nM | TGI (MALME-3M melanoma): 4790 nM | GI50 (SK-MEL-2 melanoma): 2140 nM | TGI (SK-MEL-2 melanoma): 4870 nM | GI50 (NCI-H23 lung): 1950 nM | TGI (NCI-H23 lung): 4640 nM | GI50 (HL-60(TB) leukemia): 1760 nM | TGI (HL-60(TB) leukemia): 6090 nM
